Data from patent US9474757B2, “Methods for treating cancer using TOR kinase inhibitor combination therapy” (Signal Pharmaceuticals, LLC, priority 2013, dated 2016).

Key:
[1] = test system: WSU-DLCL2 xenograft; test: DLBCL xenograft model (WSU-DLCL2); type: in vivo, SCID mice; settings: for decrease in tumor volume (TVR) vs vehicle: Day 34, Compound 1 10 mg/kg QD, Compound A 30 mg/kg QD, Compound AA 50 mg/kg BID, oral; for tumor volume reduction (TVR) vs vehicle: initial study, oral QD, end of 3-week dosing, Day 35
Experimental: Severe combined immunodeficiency (SCID) mice were implanted with human DLBCL cell line (WSU-DLCL2) into the flank. Treatment of compounds started between Day 11 and Day 14 after cell inoculation. Randomized groups of mice (n=9 to 10/group) were treated with the single agents (Compound 1, Compound A or Compound AA) or the combination of Compound 1/Compound A, Compound A/Compound AA, or Compound 1/Compound AA. Compounds were administered orally on a once daily (Compound 1 and Compound A) or twice daily […] schedule for 21 days. The positive control consisted of CHOP therapy (combination of cyclophosphamide, doxorubicin, vincristine and prednisone). Compound 1 and Compound A were formulated in CMC-Tween (carboxymethylcellulose/Tween 80/deionized water). Compound AA was suspended in DSP (dimethylsulphoxide/solutol/phosphate buffered saline).
Initial studies were conducted in order to determine the antitumor activity of Compound 1 and to identify a dose level for the combination studies. In the WSU-DLCL2 xenograft model, Compound 1 inhibited tumor growth in a dose-dependent fashion. […] In a subsequent combination study, Compound 1 was dosed at 10 mg/kg, once daily (QD). Compound A and Compound AA were dosed at 30 mg/kg (QD) and 50 mg/kg (BID), respectively.

[2] = test system: SK-Hep-1 cells; test: Anchorage independent growth colony formation assay, SK-Hep-1; type: cell-based, Human
Experimental: (§1) Cell Lines/Cells. Human cell lines HepG2 and SK-Hep-1 cells were obtained from American Type Culture Collection (ATCC; Manassas, Va.). Cells were cultured in DMEM (Dulbecco's Modified Eagle's Medium) (Mediatech; Mannasas, Va.) with 10% Premium FBS (Lonza, Walkersville, Md.).
(1) Single Agent Colony Formation Assay. Nobel Agar (1.2 grams; BD; Franklin Lakes, N.J.) was placed in a 100-mL sterile bottle. Sterile water (100 mL) was added and microwaved until the agar boiled. Equal volumes of agar and 2×RPMI medium (ECE Scientific; Doylestown, Pa.) were mixed and 300 μL were transferred to each well in a 24-well flat bottom plate (BD; Franklin Lakes, N.J.). Plates were kept at 4° C. until the agar solidified. Cultures of HepG2 and SK-Hep-1 cells were harvested and resuspended in culture medium at 3.6×10^3 cells/mL. Equal volumes of agar, 2×RPMI, and cell suspension (1:1:1) were mixed in a sterile tube and 500 μL/well were immediately transferred into the 24-well plates. Plates were kept at 4° C. until the agar solidified. Culture medium (500 μL) containing compound or DMSO was added to each well (final DMSO concentration for each treatment was 0.2%). Compound 1 was tested at final concentrations of 0.1, 0.3, 1, 3, 10 and 30 μM. Cell treatments were set up in triplicate. Cells were incubated for 8-10 days at 37° C. in a 5% CO2 atmosphere. Photographs (2× magnification) of each well were taken using a Nikon DXM1200 Digital Camera and Nikon ACT1 software and saved as a TIFF file. ImageQuant TL (GE Healthcare; Piscataway, N.J.) Colony Count Software was used to count colonies. (2) Combination Study Colony Formation Assay. Nobel Agar (1.2 grams; BD; Franklin Lakes, N.J.) was placed in a 100-mL sterile bottle. Sterile water (100 mL) was added and microwaved until the agar boiled. […]
(§2) Significance versus the DMSO control was calculated using One Way ANOVA and Dunnett's Post test or unpaired t tests using GraphPad Prism v5.01.

[3] = test system: OCI-Ly10 xenograft; test: OCI-Ly10 DLBCL xenograft model; type: in vivo, SCID mice
Text: OCI-Ly10 cells are derived from a diffuse-large B-cell lymphoma, a type of non-Hodgkins lymphoma. Female SCID mice (Fox Chase SCID®, CB 17/Icr-Prkdcscid, Charles River), characterized by severe combined T and B cell immunodeficiency, were 10 weeks old, with body weights ranging from 15.4 to 24.2 g, on Day 1 of this study. In brief, female CB.17 SCID mice were inoculated with 5×10^6 OCI-Ly10 cells subcutaneously, and tumors were allowed to grow to approximately 100-150 mm^3 before stratification into treatment groups, so as to yield groups with comparably sized tumors prior to treatment. In addition to the efficacy treatment groups, some mice were stratified into short-term treatment groups and their tumors were collected 4 hours post final dosing in groups that received saline, 30 mg/kg or 10 mg/kg Compound A, or 3 mg/kg Compound 1 once daily for seven days, starting on day 27. Frozen, and fixed paraffin-embedded, samples were analyzed. In the efficacy arm of the study, dosing began on Day 1 (D1) in 12 groups of mice (n=10/group) with established subcutaneous tumors (mean volumes, 120-129 mm^3). Compound A (at two dose levels) and Compound 1 (at one dose level) were each administered once daily for 28 days (qd×28). Control mice received the vehicle, 5% DMSO/15% Solutol® HS15/80% PBS, p.o. b.i.d.×28. On D29 a 21-day dosing extension, from day 33 to day 53, in the control and five test groups was implemented, resulting in b.i.d.×28/4/21 or qd×28/4/21 schedules for these groups.
Tumors were calipered twice weekly, and each mouse in the efficacy study was euthanized when its tumor reached the 1000 mm^3 volume endpoint, or on day 61, whichever came first. Efficacy was determined from tumor growth delay (TGD), defined as the increase in the median time-to-endpoint (TTE) in drug-treated (T) versus vehicle-treated (C) mice, and from the significance of survival extension.

[4] = test system: HepG2 cells; test: Anchorage independent growth colony formation assay, HepG2; type: cell-based, Human; settings: for colony formation, % of control: HepG2, single agent, 8 days
Experimental: as §1
(1) Single Agent Colony Formation Assay. Nobel Agar (1.2 grams; BD; Franklin Lakes, N.J.) was placed in a 100-mL sterile bottle. Sterile water (100 mL) was added and microwaved until the agar boiled. Equal volumes of agar and 2×RPMI medium (ECE Scientific; Doylestown, Pa.) were mixed and 300 μL were transferred to each well in a 24-well flat bottom plate (BD; Franklin Lakes, N.J.). Plates were kept at 4° C. until the agar solidified. Cultures of HepG2 and SK-Hep-1 cells were harvested and resuspended in culture medium at 3.6×10^3 cells/mL. Equal volumes of agar, 2×RPMI, and cell suspension (1:1:1) were mixed in a sterile tube and 500 μL/well were immediately transferred into the 24-well plates. Plates were kept at 4° C. until the agar solidified. Culture medium (500 μL) containing compound or DMSO was added to each well (final DMSO concentration for each treatment was 0.2%). Compound 1 was tested at final concentrations of 0.1, 0.3, 1, 3, 10 and 30 μM. Cell treatments were set up in triplicate. Cells were incubated for 8-10 days at 37° C. in a 5% CO2 atmosphere. Photographs (2× magnification) of each well were taken using a Nikon DXM1200 Digital Camera and Nikon ACT1 software and saved as a TIFF file. ImageQuant TL (GE Healthcare; Piscataway, N.J.) Colony Count Software was used to count colonies. (2) Combination Study Colony Formation Assay. Nobel Agar (1.2 grams; BD; Franklin Lakes, N.J.) was placed in a 100-mL sterile bottle. Sterile water (100 mL) was added and microwaved until the agar boiled. Equal volumes of agar and 2×RPMI medium (ECE Scientific; Doylestown, Pa.) were mixed and 300 μL were transferred to each well in a 24-well flat bottom plate (BD; Franklin Lakes, N.J.). Plates were kept at 4° C. until the agar solidified. Cultures of HepG2 and SK-Hep-1 cells were harvested and resuspended in culture medium at 3.6×10^3 cells/mL. Equal volumes of agar, 2×RPMI, and cell suspension (1:1:1) were mixed in a sterile tube and 500 µL/well were immediately transferred into the 24-well plates. Plates were kept at 4° C. until the agar solidified. Culture medium (500 μL) containing compound or DMSO was added to each well (final DMSO concentration for each treatment was 0.2%). Cells were treated with single treatment as follows: Compound 1 was tested at final concentrations of 0.1 and 0.3 μM. Cell treatments were set up in triplicate. Cells were incubated for 8-10 days at 37° C. in a 5% CO2 atmosphere. Photographs (2× magnification) of each well were taken using a Nikon DXM1200 Digital Camera and Nikon ACT1 software and saved as a TIFF file. ImageQuant TL (GE Healthcare; Piscataway, N.J.) Colony Count Software was used to count colonies.
as §2

[5] = test system: SUDHL4 (DLBCL) xenografts; test: CIVO arrayed microinjection, SUDHL4 xenograft, cleaved caspase 3; type: in vivo, Nu/Nu mice; settings: systemic Compound A 30 mpk QD×8 -/+ dexamethasone 5 mpk, local Compound 2 13 μg in 4 μL
Experimental: (§3) Anesthetized Nu/Nu mice harboring xenografted tumors were injected with multiple individual compounds or compound combinations, simultaneously, each into a distinct location of the tumor. Precise, controlled delivery of the compounds was evaluated for spatially defined and cellular changes around sites of tumor microinjection across xenograft models of DLBCL. Tumors were resected and injection quality was assessed by IVIS imaging of co-injected near-infrared tracking dye. Sections from representative regions down the z-axis of the tumor were prepared for staining with biomarkers of pathway inhibition and tumor response. Samples were then batch scanned in a Caliper Pannoramic slide scanner, resulting in high resolution images compatible with single cell analysis and subsequent data quantification via Presage's CIVO™ analyzer custom image analysis platform (for technology description, see R. Klinghoffer et al, AACR, 2014 and Presagebio.com).
In order to evaluate combination effects of Compound A with other compounds in the DLBCL model SUDHL4, vehicle or Compound A (30 mpk QD×8)−/+ dexamethasone (5 mpk QD×8) was given systemically. […] Apoptosis was evaluated by measurement of the apoptosis marker, cleaved caspase 3 (CC3), which was plotted as a function of distance from the injection site.

[6] = test system: OCILy10 xenografts; test: CIVO arrayed microinjection, OCILy10 xenograft, cleaved caspase 3; type: in vivo, Nu/Nu mice
Experimental: as §3
In order to evaluate combination treatment with Compound 1, Compound A and Compound AA, mice with OCILy10 xenografts were treated systemically with Compound A 30 mpk QD×4 followed by Compound A 30 mpk and Compound 110 mpk QD×3. At 3 hours after the 7th systemic dose, Compound AA (15.4 μg in 4 μL injected) was injected locally at three sites. […]

[7] = combination study, single agents or in combination
[8] = extended schedule qd×28/4/21: Compound A 10 mg/kg, Compound 1 3 mg/kg
[9] = extended schedule qd×28/4/21: Compound A 10 mg/kg, Compound 1 3 mg/kg, alone or combined
[10] = 28-day schedule: Compound A 30 mg/kg qd×28, alone or with Compound 1

## CO[C@H]1CC[C@H](N2C(=O)CNc3ncc(-c4ccc(C(C)(C)O)nc4)nc32)CC1 [Compound 1, 7-(6-(2-hydroxypropan-2-yl)pyridin-3-yl)-1-((1r,4r)-4-methoxycyclohexyl)-3,4-dihydropyrazino-[2,3-b]pyrazin-2(1H)-one]
[1]; combination study
  decrease in tumor volume (TVR) vs vehicle: 29%
[1]; [7]
  body weight loss: No significant body weight loss
[1]; 1 mg/kg
  tumor volume reduction (TVR) vs vehicle: ~22%
[1]; 3 mg/kg
  tumor volume reduction (TVR) vs vehicle: ~28%
[1]; initial study, 1, 3 and 10 mg/kg
  body weight loss: No significant body weight loss
[2]; SK-Hep-1, concentrations of 0.1 to 100 μM
  anti-colony forming activity: dose-dependent and significant anti-colony forming activity
[2]; SK-Hep-1, single agent, 3 μM and higher
  inhibition of colony formation: 100%
[2]; SK-Hep-1, single agent, 0.3-30 μM, 8-10 days
  colony formation, % of control: 0-45 % of control
[3]; [8]
  tumor growth delay (TGD), %: 73%
[3]; [9]
  PRs / regressions: one
  survivors (n=10/group): five
  tumor growth delay (TGD): 23.8 days
[4]; HepG2, concentrations of 0.1 to 100 μM
  anti-colony forming activity: dose-dependent and significant anti-colony forming activity
[4]; 0.1 μM
  colony formation, % of control: 74 % of control
[4]; 0.3 μM
  colony formation, % of control: 57 % of control
[4]; 1 μM
  colony formation, % of control: 33 % of control
[4]; 3 μM
  colony formation, % of control: 24 % of control
[4]; 10 μM
  colony formation, % of control: 16 % of control
[4]; 30 μM
  colony formation, % of control: 11 % of control

## Cc1nc2cccc(N)c2c(=O)n1C1CCC(=O)NC1=O (stereo not drawn) [Compound A, 3-(5-Amino-2-methyl-4-oxoquinazolin-3(4H)-yl)-piperidine-2,6-dione]
[1]; combination study
  decrease in tumor volume (TVR) vs vehicle: 30%
[1]; [7]
  body weight loss: No significant body weight loss
[3]; 28-day schedule: Compound A 30 mg/kg qd×28
  tumor growth delay (TGD), %: 88%
[3]; [10]
  PRs: two
  survivors (n=10/group): seven
  tumor growth delay (TGD): 28.6 days
[3]; [8]
  tumor growth delay (TGD), %: 27%
[3]; [9]
  PRs / regressions: no regressions
  survivors (n=10/group): three
  tumor growth delay (TGD): 8.9 days
[5]
  apoptosis (cleaved caspase 3) induced by local treatment with Compound 2: enhanced induction of apoptosis
[5]; listed as compound A
  apoptosis (cleaved caspase 3) induced by local treatment with Compound 2: enhanced cell death
[6]; systemic Compound A 30 mpk, with or without Compound 1 10 mpk, local Compound AA
  cell death (CC3 positive sites) at Compound AA injection sites: did not lead to cell death
[6]; systemic dose, local injection of Compound AA 15.4 μg in 4 μL, total sites 18 and 26
  CC3 positive sites: 0
